From patent US6864378B2, “Integrated continuous process for anhydro sugar alcohol manufacture” (E. I. du Pont de Nemours and Company, priority 2002, dated 2005) come the findings set out here.

The format of this data set is physicochemical. The text has this:
The reaction product obtained by processes such as the above, contains about 70 to 80% by weight isosorbide and 20 to 30% undesired reaction byproducts. The reaction product thus needs to be subjected to one or more separation steps, such as evaporation, distillation or chromatographic separation, to isolate the isosorbide. Chromatographic separation is disclosed in U.S. Patent Application No. 60/246038 (filed 6, Nov. 2000). Separation by vaporization or distillation is difficult because of the low vapor pressure of isosorbide. […] Evaporation or distillation at temperatures not much higher than about 140° C. is desirable to-minimize product degradation and obtain good purity isosorbide, but the recovery is poor. At higher temperatures, e.g., 170° C., more isosorbide is recovered, but it is of poorer quality.
The sorbitans, dimers, and polymer byproducts are all considerably higher boiling than isosorbide. For example, the vapor pressure of the sorbitans is only about 0.04 mm Hg at 140° C., about one-fiftieth that of isosorbide. The dimers are even less volatile, and the polymers are practically nonvolatile. Therefore, the water vapor volatilizes most of the dianhydro sugar alcohols but not such high boiling byproducts. […]

With `O[C@@H]1CO[C@H]2[C@@H]1OC[C@@H]2O` [isosorbide, 1,4:3,6-dianhydrosorbitol], the vapor pressure was 1.75 mm Hg.
